Data on one molecule can be found in US20030212118A1, “Treatment of eating disorders using carboxyalkylethers” (priority 2000, published 2003).

Where a name gives a salt, the structure may show the parent alone. Marks after values point to notes of the source that are not given here.

Series [1] in a line: Evaluation of CI-1027 in female obese Zucker rats (body weight and liver weight). It counts as in vivo. Conditions: for Body Weight Day 0: Day 0 (baseline), mean ± SEM; for Body Weight Day 0 / Body Weight Day 7 / Body Weight Day 14 / Body Weight Day 21 / Body Weight Day 28 / Body Weight Day 32 / Liver Weight Day 32 / Percent Liver/Body Weight: n = 6; for Body Weight Day 7: Day 7, mean ± SEM; for Body Weight Day 14: Day 14, mean ± SEM; for Body Weight Day 21: Day 21, mean ± SEM; for Body Weight Day 28: Day 28, mean ± SEM; for Body Weight Day 32 / Liver Weight Day 32 / Percent Liver/Body Weight: Day 32, mean ± SEM. The procedure:
Adult female obese Zucker rats weighing 265 to 268 g were obtained from Genetic Models, Inc. The animals were maintained on a diet of pelleted rodent chow (Ralston Purina) and were given water ad libitum. The animals were housed in cages in a temperature controlled room, with a 12-hour light/12-hour dark cycle (lights were turned on at 6 AM each day). CI-1027 was suspended in a vehicle of 1.5% carboxymethylcellulose containing 0.2% Tween-20. A control group of six rats were dosed daily with vehicle alone. One group of six test animals received daily oral dosing (by gavage) of 2.5 mL/kg suspensions of CI-1027 at 30 mg/kg active drug, while another group of six animals received daily oral dosing of 2.5 mL/kg of suspension at 100 mg/kg of CI-1027. The pelleted rodent chow was available ad libitun, except on Days 0, 7, 14, 21, 28, and 32, when food was removed from the cages at 7:30 AM, and the animals were weighed within 2 hours following removal of the food. The food trays were replaced in the cages after the weights of all animals were measured.

Series [2] is described as follows: Evaluation of CI-1027 in leptin receptor deficient mice (body weight, food consumption). The class given is in vivo.

Turning to `CC(C)(CCCCOCCCCC(C)(C)C(=O)O)C(=O)O` [CI-1027, 6-(5-carboxy-5-methyl-hexyloxy)-2,2-diiethyl-hexanoic acid, calcium salt], in series [1] (30 mg/kg daily oral gavage), the “Body Weight Day 0” value is given as 265 ± 4 g, the “Body Weight Day 7” value is recorded as 283 ± 4^a g, the “Body Weight Day 14” value is given as 299 ± 4^c g and the “Body Weight Day 21” value is listed as 311 ± 3^c g. In series [1] (30 mg/kg daily oral gavage), the “Body Weight Day 28” value was 317 ± 4^c g, the “Body Weight Day 32” value was 321 ± 4^c g, the “Liver Weight Day 32” value is given as 22.8 ± 1.0^c g and the “Percent Liver/Body Weight” value was 7.09 ± 0.3^c Percent. In series [1] (100 mg/kg daily oral gavage), the “Body Weight Day 0” value was 265 ± 4 g, the “Body Weight Day 7” value is given as 286 ± 3^a g, the “Body Weight Day 14” value is on record as 302 ± 4^b g and the “Body Weight Day 21” value is listed as 314 ± 4^c g. In series [1] (100 mg/kg daily oral gavage), the “Body Weight Day 28” value is on record as 326 ± 5^c g, the “Body Weight Day 32” value is reported as 326 ± 5^c g, the “Liver Weight Day 32” value is listed as 24.8 ± 1.3^c g and the “Percent Liver/Body Weight” value was 7.53 ± 0.3^c Percent. Besides, the reduction in weight result in series [1] (all treatment groups (30 and 100 mg/kg), over 32 days) was “significant reduction in weight”. Also, in series [2], the “effect on body weight” value is given as “no significant effect” and the “effect on food consumption” value was “no significant effect”.
